According to paper PMC7076440, “New Preclinical Development of a c-Met Inhibitor and Its Combined Anti-Tumor Effect in c-Met-Amplified NSCLC” (Pharmaceutics, 2020):
Values after ≈ are worked out from the molar mass of the structure shown.

How the values were obtained:
Type in all cases: physicochemical
[1] = log D / log P, octanol/water
Description: ABN401 solution (10 μg/mL) was mixed with octanol at a ratio of 1:1 in a glass vial and placed horizontally in a Digital Bio Rotator (SeoLin Bioscience, Seongnam, Korea), and shaken at a constant 90 rpm for 24 h. After 6 h of equilibrium under room temperature, two phases of water and octanol were separated using a separating funnel. The experiment was repeated five times. The concentration of ABN401 at each phase was analyzed by HPLC and log P and log D were calculated using the Henderson-Hasselbalch equation below with the previously determined pKa value. (4) logDbases =logP+log⎣1/(1+ 10^pKa−pH)⎦

Forced degradation study = test: Forced degradation study
Description: ABN401 was dissolved in 50/50 (v/v) % of acetonitrile and water, to give a stock solution of 2 mg/mL. The stock sample was diluted to a final concentration of 0.5 mg/mL and subjected to various stresses such as 1.0 N HCl acid (pH 1.1), 1.0 N NaOH base (pH 12.3), 1.0% hydrogen peroxide, heat (in solution and as a solid material) in an oven at 60 °C, and UV-Vis light (in solution) in a closed quartz container at 20 °C with UV light at 16.08 mW/m2; Vis 5.7 kLux. The samples were tested with quantitative HPLC method at 24, 48, and 72 h. The results were expressed in area % for recovery. The control sample was left at ambient conditions to simulate the potential loss of ABN401 when left at ambient conditions (> 99.0%).

[2] = Polymorph stability by PXRD; conditions: 40 °C/75% RH, 1 month open container and 3 months closed container
Description: PXRD patterns were measured at room temperature using a D8 Advance with a DAVINCI X-ray diffractometer (Bruker AXS GmbH, Karlsruhe, Germany) equipped with a Ni-filtered Cu-Kα radiation (λ = 1.54056 Å) and a high speed LynxEye detector. The powder samples were loaded onto a quartz holder and scanned over a range of 4–40° at a scanning rate of 6°/min.
The polymorphism of ABN401 was also investigated with physical stresses by heat and humidity.

[3] = pH solubility and pKa determination; conditions: for solubility at 24 h: aqueous HCl/NaOH solution, aqueous buffer, thermodynamic from solid
Description: (§1) Solutions at pH values of 1 to 12 were prepared using HCl and NaOH. At first, 10^−1 N, 10^−2 N, 10^−3 N, 10^−4 N, 10^−5 N, and 10^−6 N of HCl and NaOH solutions were prepared and their pH values were measured with a pH meter (Metrohm 827 pH lab, Zurich, Switzerland). One milliliter of the 10^−4 N, 10^−5 N, and 10^−6 N of HCl and NaOH solutions was withdrawn and diluted in a 100 mL flask for more coordination. In each prepared solution (n = 3), excess ABN401 was dissolved and mixed for 24 h. All samples were centrifuged for 1 min at 12,000 rpm. The pH solubility of ABN401 was analyzed by HPLC and the pKa was determined by plotting a graph of log(solubility) against pH.

[4] = Equilibrium solubility at different pHs and excipients by HPLC; conditions: thermodynamic from solid
Description: as §1
An HPLC system (Shimadzu LC-20, Shimadzu, Kyoto, Japan) was used to analyze the solubility, dissolution profile, and degradation products as well as to determine the storage stability of ABN401. The wavelength of the UV detector was set at 282 nm. For quantification analysis, the Agilent Eclipse Plus C18 (5 μm, 4.6 × 150 mm) (Agilent technologies, Santa Clara, CA, USA) was used and maintained at 30 °C. The mobile phase was a mixture of acetonitrile and 50 mM acetate buffer at pH 5.0 at a volume ratio of 50 to 50 (v/v %). The flow rate of the mobile phase was 0.5 mL/min and the injection volume was 10 μL. A Kromasil C8 (5 μm, 4.6 × 250 mm) column was used for qualification analysis to observe the impurity profile during the storage stability test. The following gradient was applied: 0–20 min, 80% acetonitrile and 20% acetate buffer to 20% acetonitrile and 80% acetate buffer, maintained up to 25 min; 25– 28 min, back to 80% acetonitrile and 20% acetate buffer, maintained up to 35 min. The flow rate of the mobile phase was 1 mL/min and the injection volume was 10 μL.
(§2) The solubility of ABN401 in two different acidic buffers (i.e., acetate and citrate) were analyzed at three different pH values: 4.0, 4.5, and 5.0 (Table 2). […] Different concentrations of PEG400, cremophor EL, and polysorbate 80 were also evaluated as co-solvents to ABN401 in 0.1 M acetate buffer at pH 4.0 to investigate the solubility enhancement. […] Therefore, 20% PEG400 in 0.1 M sodium acetate was selected as an oral gavage formulation and intravenous solution for in vivo studies. A short storage stability test was performed for 8 days in a cold chamber to determine the concentration recovery yields at low and high concentrations, which were 0.03 mg/mL and 133 mg/mL, respectively. […] As a result, pH 4.0 yielded the highest percentage recovery in both low and high concentrations (Table 3).

[5] = Short storage stability of oral gavage formulation in cold chamber
Description: as §2

## CN1CCN(Cc2ccc(-c3cnc(N4CCOC(Cn5nnc6ncc(-c7cnn(C)c7)nc65)C4)nc3)cc2)CC1 (stereo not shown) [ABN401]
[1]; average ± SD of five runs
  logD: 1.41 ± 0.08
  logP at 24 h: 2.46 ± 0.04
[1]; pH 6.4, run 3, pH 6.40
  logD: 1.37
[1]; run 1, from log D and pKa (Henderson-Hasselbalch)
  logP at 24 h: 2.41
[1]; run 1, pH 6.41
  logD: 1.3
[1]; run 2, from log D and pKa
  logP at 24 h: 2.43
[1]; run 2, pH 6.59
  logD: 1.48
[1]; run 3, from log D and pKa
  logP at 24 h: 2.5
[1]; run 4, from log D and pKa
  logP at 24 h: 2.51
[1]; run 4, pH 6.49
  logD: 1.47
[1]; run 5, from log D and pKa
  logP at 24 h: 2.45
[1]; run 5, pH 6.53
  logD: 1.45
Forced degradation study; 1.0 N HCl (pH 1.1), 1.0 N NaOH (pH 12.3), 72 h
  difference after exposure to acidic and basic pH: approximately 1.7%
Forced degradation study; in solution
  sensitivity to UV/Vis light: highly sensitive
Forced degradation study; left at ambient conditions, area %
  recovery of control sample: > 99.0%
[2]
  change in polymorph: no change in its polymorph
[3]; aqueous HCl and NaOH solutions, pH 1 to 12, from plot of log(solubility) against pH, read-out: apparent pKa
  pKa at 24 h: 7.49
[3]; above neutral pH
  solubility at 24 h: ≤ 0.01 mg/mL
[3]; pH 2.28 (highest)
  solubility at 24 h: 26.9 mg/mL (≈ 47.4 mM)
[4]; 20% PEG 400 in 0.1 M acetate buffer, aqueous with cosolvent or surfactant or cyclodextrin, PEG 400 (20 %), co-solvent in 0.1 M acetate buffer pH 4.0
  solubility at 24 h: 8.01 mg/mL (≈ 14.1 mM)
[4]; 40% PEG 400 in 0.1 M acetate buffer, aqueous with cosolvent or surfactant or cyclodextrin, PEG 400 (40 %), co-solvent in 0.1 M acetate buffer pH 4.0
  solubility at 24 h: 8.8 mg/mL (≈ 15.5 mM)
[4]; 60% PEG 400 in 0.1 M acetate buffer, aqueous with cosolvent or surfactant or cyclodextrin, PEG 400 (60 %), co-solvent in 0.1 M acetate buffer pH 4.0
  solubility at 24 h: 9.48 mg/mL (≈ 16.7 mM)
[4]; 80% PEG 400 in 0.1 M acetate buffer, aqueous with cosolvent or surfactant or cyclodextrin, PEG 400 (80 %), co-solvent in 0.1 M acetate buffer pH 4.0
  solubility at 24 h: 12.6 mg/mL (≈ 22.1 mM)
[4]; aqueous buffer, 0.1 M acetate buffer (pH 4.0)
  solubility at 24 h: 7.14 mg/mL (≈ 12.6 mM)
[4]; aqueous buffer, 0.1 M acetate buffer (pH 4.5)
  solubility at 24 h: 2.29 mg/mL (≈ 4.04 mM)
[4]; aqueous buffer, 0.1 M acetate buffer (pH 5.0)
  solubility at 24 h: 0.56 mg/mL (≈ 0.988 mM)
[4]; aqueous buffer, 0.1 M citrate buffer (pH 4.0)
  solubility at 24 h: 0.06 mg/mL (≈ 0.106 mM)
[4]; aqueous buffer, 0.1 M citrate buffer (pH 4.5)
  solubility at 24 h: 0.03 mg/mL (≈ 0.0529 mM)
[4]; aqueous buffer, 0.1 M citrate buffer (pH 5.0)
  solubility at 24 h: 0.02 mg/mL (≈ 0.0353 mM)
[4]; aqueous buffer, 1× PBS (pH 7.4)
  solubility at 24 h: 0.01 mg/mL (≈ 0.0176 mM)
[4]; hydrochloric acid solution, aqueous buffer, Hydrochloric (pH 2.5)
  solubility at 24 h: 26 mg/mL (≈ 45.8 mM)
[4]; hydrochloric acid solution, aqueous buffer, Hydrochloric (pH 5.0)
  solubility at 24 h: 3.92 mg/mL (≈ 6.92 mM)
[4]; organic solvent or mixture, Cremophor EL (100 %)
  solubility at 24 h: 14.1 mg/mL (≈ 24.9 mM)
[4]; organic solvent or mixture, PEG 400 (100 %)
  solubility at 24 h: 15.5 mg/mL (≈ 27.3 mM)
[4]; organic solvent or mixture, Polysorbate 80 (100 %)
  solubility at 24 h: 8.46 mg/mL (≈ 14.9 mM)
[5]; 0.03 mg/mL, pH 2.0, day 8, 2–8 °C
  Recovery: 104.4%
[5]; 0.03 mg/mL, pH 3.0, day 8, 2–8 °C
  Recovery: 96.5%
[5]; 0.03 mg/mL, pH 4.0, day 0, 2–8 °C
  Recovery: 100.0%
[5]; 0.03 mg/mL, pH 4.0, day 8, 2–8 °C
  Recovery: 97.0%
[5]; 133 mg/mL, pH 2.0, day 8, 2–8 °C
  Recovery: 94.8%
[5]; 133 mg/mL, pH 3.0, day 8, 2–8 °C
  Recovery: 94.4%
[5]; 133 mg/mL, pH 4.0, day 0, 2–8 °C
  Recovery: 98.0%
[5]; 133 mg/mL, pH 4.0, day 8, 2–8 °C
  Recovery: 98.0%
